In patent US11028051B2, “Tetrahydroquinoline-based bromodomain inhibitors” (St. Jude Children's Research Hospital, priority 2016, dated 2021) one finds EC50 and 2.1/2.2 data, which are given here for 27 compounds.

By EC50 is commonly meant the concentration that produces a half-maximal response.

Structures are written as SMILES. A value given as a limit tells only on which side of the number the result lay.

Common to all, as to assay: competitive TR-FRET assay, BET-BD with acetylated peptide ligand
Common to all, as to assay type: binding
(In general: In TR-FRET formats the signal depends on donor and acceptor labels being close together.)

For assay [1], the target named is BRD2-BD2 (Homo sapiens (Human), UniProt P25440). Conditions: for EC50: BRD2-BD2, Table 11 additional modifications, read-out: 2.2 EC50; for 2.1/2.2: ratio of BRD2-BD1 EC50 to BRD2-BD2 EC50 (selectivity). Here is the method: (§1) Inhibitor potency was determined using a competitive TR-FRET assay as detailed herein, measuring interaction of the respective BET-BD with an acetylated peptide ligand (Table 2).

Assay [2] has as its target BRD4-BD2 (Homo sapiens (Human), UniProt O60885). As to conditions: BRD4-BD2; Table 11 additional modifications; read-out: 4.2 EC50. On the procedure: as §1
The target of assay [3] is BRD2-BD1 (Homo sapiens (Human), UniProt P25440). As to conditions: BRD2-BD1; Table 11 additional modifications; read-out: 2.1 EC50. On the procedure: as §1
In assay [4] the target is BRD4-BD1 (Homo sapiens (Human), UniProt O60885). Conditions: BRD4-BD1; Table 11 additional modifications; read-out: 4.1 EC50. On the procedure:
as §1

Assay [5] concerns the target BRD3-BD1 (Homo sapiens (Human), UniProt Q15059). Conditions: BRD3-BD1; Table 11 additional modifications; read-out: 3.1 EC50. On the procedure: as §1
Assay [6] has as its target BRDT (Homo sapiens, UniProt Q58F21). As to conditions: BRDT; Table 11 additional modifications; read-out: BRDT EC50. On the procedure:
as §1

Sequence of BRD2-BD1 (P25440 74-180): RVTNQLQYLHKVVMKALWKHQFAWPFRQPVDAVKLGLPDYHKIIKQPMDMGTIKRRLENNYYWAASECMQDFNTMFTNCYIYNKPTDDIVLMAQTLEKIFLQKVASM
Sequence of BRD2-BD2 (P25440 344-453): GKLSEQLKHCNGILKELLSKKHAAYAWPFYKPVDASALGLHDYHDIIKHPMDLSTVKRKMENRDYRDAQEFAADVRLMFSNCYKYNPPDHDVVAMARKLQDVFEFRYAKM
Sequence of BRD3-BD1 (Q15059 34-140): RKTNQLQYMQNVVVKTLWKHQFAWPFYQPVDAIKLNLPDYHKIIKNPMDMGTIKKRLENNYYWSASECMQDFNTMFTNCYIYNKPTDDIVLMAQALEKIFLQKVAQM

`CC(=O)N1c2ccc(-c3cccc(N)c3)cc2[C@H](NC(=O)OC(C)C)C[C@@H]1C` [compound 2]: the EC50 in assay [1] was 0.11 µM; in assay [2] it was 0.64 µM; in assay [3], 0.73 µM; in assay [4] it was 1.88 µM; in assay [5], 0.25 µM. Besides, the 2.1/2.2 in assay [1] turned out to be 6.6.
`COc1cccc(-c2ccc3c(c2)[C@H](NC(=O)OC(C)C)C[C@H](C)N3C(C)=O)c1` [compound 3]: the EC50 is 0.85 µM in assay [1]; greater than 67.8 µM in assay [2]; 5.8 µM in assay [3]; greater than 67.8 µM in assay [4]; 2.3 µM in assay [5]. In assay [1], the 2.1/2.2 came to 6.8.
`CC(=O)N1c2ccc(-c3ccc(N(C)C)cc3)cc2[C@H](NC(=O)OC(C)C)C[C@@H]1C` [compound 57]: the EC50 in assay [1] was 0.79 µM; in assay [2], 0.73 µM; in assay [3] it was 1.5 µM; in assay [4], 2.9 µM; in assay [5] it was 1.4 µM. Moreover, the 2.1/2.2 in assay [1] stood at 1.9.
In the case of `CC(=O)N1c2ccc(-c3cccc([N+](=O)[O-])c3)cc2[C@H](NC(=O)OC(C)C)C[C@@H]1C` [compound 58], the EC50 is 1.1 µM in assay [1]; 6.2 µM in assay [2]; 7.7 µM in assay [3]; greater than 96 µM in assay [4]; 5.2 µM in assay [5]. For the same compound, the 2.1/2.2 in assay [1] turned out to be 7.0.
`COc1ccc(-c2ccc3c(c2)[C@H](NC(=O)OC(C)C)C[C@H](C)N3C(C)=O)cc1` [compound 59]: the EC50 in assay [1] is 1.2 µM; in assay [2], 2.1 µM; in assay [3] it was 3.6 µM; in assay [4] it was 3.5 µM; in assay [5] it was 1.9 µM. Also, in assay [1], the 2.1/2.2 is listed as 2.9.
As for `COc1ccccc1-c1ccc2c(c1)[C@H](NC(=O)OC(C)C)C[C@H](C)N2C(C)=O` [compound 60], the EC50 was 2.9 µM in assay [1]; 14 µM in assay [2]; 15 µM in assay [3]; greater than 50 µM in assay [4]; 11 µM in assay [5]. In addition, the 2.1/2.2 in assay [1] came out at 5.3.
As to `CC(=O)N1c2ccc(-c3ccc(Oc4ccccc4)cc3)cc2[C@H](NC(=O)OC(C)C)C[C@@H]1C` [compound 61], the EC50 came to 2.1 µM in assay [1]; 14 µM in assay [2]; 13 µM in assay [3]; 11 µM in assay [4]; 8.8 µM in assay [5]. Besides, the 2.1/2.2 in assay [1] was found to be 6.2.
Take `CC(=O)Nc1cccc(-c2ccc3c(c2)[C@H](NC(=O)c2ccccc2)C[C@H](C)N3C(C)=O)c1` [compound 62]: the concentration for a half-maximal effect (EC50) in assay [1] was 77 µM; in assay [2] it was 41 µM; in assay [3], 77 µM; in assay [4], 77 µM; in assay [5], 62 µM. Further, in assay [1], the 2.1/2.2 was 6.0.
On to `CC(=O)Nc1cccc(-c2ccc3c(c2)[C@H](NCc2ccccc2)C[C@H](C)N3C(C)=O)c1` [compound 63], for which the EC50 is 2.4 µM in assay [1]; 7.6 µM in assay [2]; 13 µM in assay [3]; 13 µM in assay [4]; 6.9 µM in assay [5]. Besides, the 2.1/2.2 in assay [1] came out at 1.0.
On to `CC(=O)Nc1cccc(-c2ccc3c(c2)[C@H](NC(=O)Cc2ccccc2)C[C@H](C)N3C(C)=O)c1` [compound 64], for which the EC50 amounted to 2 µM in assay [1]; 10 µM in assay [2]; 8.1 µM in assay [3]; 7.3 µM in assay [4]; 11 µM in assay [5]. Moreover, the 2.1/2.2 in assay [1] is recorded as 4.1.
Consider `CC(=O)Nc1cccc(-c2ccc3c(c2)[C@H](NC(=O)C(C)C)C[C@H](C)N3C(C)=O)c1` [compound 65], for which the 2.1/2.2 in assay [1] turned out to be 1.4. In addition, the EC50 in assay [2] stood at 7.8 µM.
For `COc1ccc(C(=O)N[C@@H]2C[C@H](C)N(C(C)=O)c3ccc(-c4cccc(NC(C)=O)c4)cc32)cc1` [compound 66], the EC50 came to 36 µM in assay [1]; 78 µM in assay [2]; 71 µM in assay [3]; 78 µM in assay [4]; 77 µM in assay [5]. Also, in assay [1], the 2.1/2.2 came to 2.0.
Consider `CCC(=O)N[C@@H]1C[C@H](C)N(C(C)=O)c2ccc(-c3cccc(NC(C)=O)c3)cc21` [compound 67], for which the EC50 in assay [1] was 18 µM; in assay [2], 11 µM; in assay [3], 24 µM; in assay [4], 60 µM; in assay [5] it was 36 µM. The 2.1/2.2 in assay [1] is on record as 1.4.
On to `CC(=O)Nc1cccc(-c2ccc3c(c2)[C@H](NC(=O)c2ccc(F)cc2)C[C@H](C)N3C(C)=O)c1` [compound 68], for which the EC50 in assay [1] amounted to 10 µM; in assay [2] it was 20 µM; in assay [3], 70 µM; in assay [4], 80 µM; in assay [5], 41 µM. Further, the 2.1/2.2 in assay [1] turned out to be 6.9.
Take `CC(=O)Nc1cccc(-c2ccc3c(c2)[C@H](NC(=O)c2ccc(C(F)(F)F)cc2)C[C@H](C)N3C(C)=O)c1` [compound 69]: the EC50 is 2.7 µM in assay [1]; 75 µM in assay [2]; 75 µM in assay [3]; 74 µM in assay [4]; 75 µM in assay [5]. In assay [1], the 2.1/2.2 is recorded as 28.
Consider `CC(=O)Nc1cccc(-c2ccc3c(c2)[C@H](NCCCc2ccccc2)C[C@H](C)N3C(C)=O)c1` [compound 70], for which the concentration giving a half-maximal response (EC50) in assay [1] worked out at 69 µM; in assay [2] it was 26 µM; in assay [3], 16 µM; in assay [4] it was 69 µM; in assay [5], 9.9 µM. Besides, the 2.1/2.2 in assay [1] was 0.23.
As for `CC(=O)Nc1cccc(-c2ccc3c(c2)[C@H](NC(=O)C(C)C)C[C@H](C)N3C(C)=O)c1` [compound 71], the 2.1/2.2 in assay [1] is reported as 4.9. Also, the EC50 in assay [2] was determined as 11 µM.
As for `CC(=O)Nc1cccc(-c2ccc3c(c2)[C@H](NC(=O)c2ccc(Cl)cc2)C[C@H](C)N3C(C)=O)c1` [compound 72], the EC50 in assay [1] amounted to 51 µM; in assay [2] it was 51 µM; in assay [3], 51 µM; in assay [4] it was 39 µM; in assay [5] it was 27 µM. In addition, the 2.1/2.2 in assay [1] was found to be 1.0.
For the compound `CCCOc1cccc(-c2ccc3c(c2)[C@H](Nc2ccccc2OC(F)(F)F)C[C@H](C)N3C(C)=O)c1` [compound 167], the EC50 in assay [1] is 2.1 µM; in assay [3], greater than 70 µM; in assay [6], greater than 70 µM; in assay [4] it was greater than 70 µM; in assay [5], greater than 70 µM. In assay [1], the 2.1/2.2 was 16.
For the compound `CCCOc1cccc(-c2ccc3c(c2)[C@H](Nc2ccc(F)cc2OC)C[C@H](C)N3C(C)=O)c1` [compound 168], the EC50 in assay [1] was 1.2 µM; in assay [3], 35 µM; in assay [6] it was 39 µM; in assay [4], greater than 57 µM; in assay [5], 45 µM. Also, the 2.1/2.2 in assay [1] is listed as 99.
For the compound `COc1cc(F)ccc1N[C@@H]1C[C@H](C)N(C(C)=O)c2ccc(-c3cc[nH]n3)cc21` [compound 170], the EC50 was 0.14 µM in assay [1]; 3.1 µM in assay [3]; 4.9 µM in assay [6]; greater than 26 µM in assay [4]; 14 µM in assay [5]. Also, the 2.1/2.2 in assay [1] came to 6.5.
On to `CC(=O)N1c2ccc(-c3cc[nH]n3)cc2[C@H](Nc2ccccc2OC(F)(F)F)C[C@@H]1C` [compound 171], for which the EC50 in assay [1] is 0.44 µM; in assay [3], greater than 53 µM; in assay [6], greater than 53 µM; in assay [4], 31 µM; in assay [5], 23 µM. Moreover, in assay [1], the 2.1/2.2 amounted to 140.
As for `CC(=O)N1c2ccc(-c3ccn(C)n3)cc2[C@H](Nc2ccccc2OC(F)(F)F)C[C@@H]1C` [compound 172], the EC50 was found to be 0.64 µM in assay [1]; 8.2 µM in assay [3]; 12 µM in assay [6]; 17 µM in assay [4]; 12 µM in assay [5]. Moreover, the 2.1/2.2 in assay [1] is recorded as 6.3.
Consider `COc1cc(F)ccc1N[C@@H]1C[C@H](C)N(C(C)=O)c2ccc(-c3ccn(C)n3)cc21` [compound 173], for which the EC50 was 0.17 µM in assay [1]; 1.4 µM in assay [3]; 2 µM in assay [6]; 3.8 µM in assay [4]; 1.5 µM in assay [5]. Besides, in assay [1], the 2.1/2.2 is 8.2.
In the case of `CC(=O)Nc1cccc(-c2ccc3c(c2)[C@H](Nc2ccc(C(=O)N(C)C)cc2)C[C@H](C)N3C(C)=O)c1` [compound 174], the EC50 in assay [1] is 0.04 µM; in assay [3] it was 0.9 µM; in assay [6] it was 1.2 µM; in assay [4], greater than 15 µM; in assay [5], 1.1 µM. For the same compound, in assay [1], the 2.1/2.2 is recorded as 58.
As to `CC(=O)Nc1cccc(-c2ccc3c(c2)[C@H](Nc2ccc(S(=O)(=O)N(C)C)cc2)C[C@H](C)N3C(C)=O)c1` [compound 175], the EC50 came out at 0.1 µM in assay [1]; 2.7 µM in assay [3]; 2.9 µM in assay [6]; 5.5 µM in assay [4]; 1.7 µM in assay [5]. Moreover, the 2.1/2.2 in assay [1] worked out at 27.
For the compound `CC(=O)Nc1cccc(-c2ccc3c(c2)[C@H](Nc2ccc(C(=O)OC(C)(C)C)cc2)C[C@H](C)N3C(C)=O)c1` [compound 176], the EC50 in assay [1] came to 0.75 µM; in assay [3], 10 µM; in assay [6] it was 13 µM; in assay [4] it was 16 µM; in assay [5] it was 8.5 µM. The 2.1/2.2 in assay [1] worked out at 30.
